Consider 25 compounds from patent US9399626B2, “2-thiopyrimidinones” (Pfizer Inc., priority 2011, dated 2016).

Where a name gives a salt, the structure may show the parent alone.

The target of the first test is T1, MPO (purified from human polynuclear leukocytes) (Homo sapiens, UniProt P05164).
T1 construct: purified from human polynuclear leukocytes; purchased Calbiochem/EMD Biosciences; host or cells: human polynuclear leukocytes (natural source)
T1 sequence (P05164 279-745 limits assumed): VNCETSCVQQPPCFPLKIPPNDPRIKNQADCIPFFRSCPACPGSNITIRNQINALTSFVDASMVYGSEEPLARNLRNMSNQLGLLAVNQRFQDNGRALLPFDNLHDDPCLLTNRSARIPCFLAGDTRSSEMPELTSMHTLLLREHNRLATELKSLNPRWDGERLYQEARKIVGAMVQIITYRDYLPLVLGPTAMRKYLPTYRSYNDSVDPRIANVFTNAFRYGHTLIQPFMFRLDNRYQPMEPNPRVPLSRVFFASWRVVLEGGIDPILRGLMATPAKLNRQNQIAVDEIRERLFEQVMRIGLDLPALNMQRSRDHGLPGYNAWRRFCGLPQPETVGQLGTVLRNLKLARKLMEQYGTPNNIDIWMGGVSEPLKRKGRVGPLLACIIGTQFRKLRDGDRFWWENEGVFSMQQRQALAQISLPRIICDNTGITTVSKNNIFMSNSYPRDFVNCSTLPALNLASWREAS
T1 sequence (P05164 165-273 limits assumed): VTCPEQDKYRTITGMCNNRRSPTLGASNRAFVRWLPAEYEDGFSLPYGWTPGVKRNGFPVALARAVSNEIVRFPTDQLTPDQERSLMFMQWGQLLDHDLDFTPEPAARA
Description: MPO Amplex Red Activity Assay. The settings on record: Table 1, 2 μM H2O2, pH 7.4. The class given is biochemical. Summed up: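 Potency is given as kinact/KI: kobs values from 600 s progress curves, minus the uninhibited rate, are fit against inhibitor concentration. Reactions use 2 μM H2O2, 30 μM Amplex Red, pH 7.4 phosphate buffer with NaCl, DTPA and 2% DMSO, started with […] human MPO. Readout is resorufin fluorescence, catalase background subtracted.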
As for `NCCn1c(-c2ccc3c(c2)CCO3)cc(=O)[nH]c1=S` [Example 14, 1-(2-aminoethyl)-6-(2,3-dihydro-1-benzofuran-5-yl)-2-thioxo-2,3-dihydropyrimidin-4(1H)-one hydrochloride], the “MPO kinact/Ki” value is reported as 5310 1/s per M. On the same count and under the same terms, under `COCCn1c(-c2cc3ccccc3cc2OC)cc(=O)[nH]c1=S` [Example 117, 1-(2-methoxyethyl)-6-(3-methoxy-2-naphthyl)-2-thioxo-2,3-dihydropyrimidin-4(1H)-one] stands 11400 1/s per M; under `COc1cc(OC)cc(-c2cc(=O)[nH]c(=S)n2CCN)c1` [Example 48, 1-(2-aminoethyl)-6-(3,5-dimethoxyphenyl)-2-thioxo-2,3-dihydropyrimidin-4(1H)-one hydrochloride], 6570 1/s per M. The same measure, in the same setting: under `COc1ccc(-c2cc(=O)[nH]c(=S)n2CCNC(=O)[C@@H](N)C(C)C)c(OC)c1` [Example 263, N-{2-[6-(2,4-dimethoxyphenyl)-4-oxo-2-thioxo-3,4-dihydropyrimidin-1(2H)-yl]ethyl}-L-valinamide trifluoroacetate] stands 4340 1/s per M; under `COc1ccc(Cl)cc1-c1cc(=O)[nH]c(=S)n1CC1CCNCC1` [Example 132, 6-(5-chloro-2-methoxyphenyl)-1-(piperidin-4-ylmethyl)-2-thioxo-2,3-dihydropyrimidin-4(1H)-one hydrochloride], 3840 1/s per M. The same measure, in the same setting: next, `COc1ccc(-c2cc(=O)[nH]c(=S)n2CCCC[C@H](N)C(N)=O)c(OC)c1` [Example 260, 6-[6-(2,4-dimethoxyphenyl)-4-oxo-2-thioxo-3,4-dihydropyrimidin-1(2H)-yl]norleucinamide hydrochloride]: 19700 1/s per M. `O=c1cc(-c2cccc3ccccc23)n(CCO)c(=S)[nH]1` [Example 162, 1-(2-hydroxyethyl)-6-(1-naphthyl)-2-thioxo-2,3-dihydropyrimidin-4(1H)-one]: the “MPO kinact/Ki” value was 8950 1/s per M. On the same count and under the same terms, next, `CCOc1ccc(-c2cc(=O)[nH]c(=S)n2CCOC)cn1` [Example 313, 6-(6-ethoxypyridin-3-yl)-1-(2-methoxyethyl)-2-thioxo-2,3-dihydropyrimidin-4(1H)-one]: 973 1/s per M; `Cl.NCCCOc1ccccc1-c1cc(=O)[nH]c(=S)n1CCN` [Example 79, 1-(2-aminoethyl)-6-[2-(3-aminopropoxy)phenyl]-2-thioxo-2,3-dihydropyrimidin-4(1H)-one hydrochloride]: 1580 1/s per M. In the case of `COc1ccc(-c2cc(=O)[nH]c(=S)n2CC(C)C(N)=O)c(OC)c1` (stereo not shown) [Example 217, 3-[6-(2,4-dimethoxyphenyl)-4-oxo-2-thioxo-3,4-dihydropyrimidin-1(2H)-yl]-2-methylpropanamide], the “MPO kinact/Ki” value is recorded as 3940 1/s per M. The same measure, in the same setting: under `COCCn1c(-c2cc(C(C)C)c(F)cc2OC)cc(=O)[nH]c1=S` [Example 344, 6-(4-fluoro-5-isopropyl-2-methoxyphenyl)-1-(2-methoxyethyl)-2-thioxo-2,3-dihydropyrimidin-4(1H)-one] stands 8480 1/s per M; under `COc1ccc(-c2cc(=O)[nH]c(=S)n2CC(O)CN)c(OC)c1` (stereo not shown) [Example 199, 1-(3-amino-2-hydroxypropyl)-6-(2,4-dimethoxyphenyl)-2-thioxo-2,3-dihydropyrimidin-4(1H)-one hydrochloride], 9080 1/s per M; under `COc1cc(F)ccc1-c1cc(=O)[nH]c(=S)n1CCCN` [Example 57, 1-(3-aminopropyl)-6-(4-fluoro-2-methoxyphenyl)-2-thioxo-2,3-dihydropyrimidin-4(1H)-one hydrochloride], 13100 1/s per M. The same measure, in the same setting: under `COc1ccc(-c2cc(=O)[nH]c(=S)n2CCNC(=O)[C@@H](C)N)c(OC)c1` [Example 255, N-{2-[6-(2,4-dimethoxyphenyl)-4-oxo-2-thioxo-3,4-dihydropyrimidin-1(2H)-yl]ethyl}-D-alaninamide trifluoroacetate] stands 3550 1/s per M. The same measure, in the same setting: next, `COc1ccc(-c2cc(=O)[nH]c(=S)n2Cc2ncn[nH]2)c(OC)c1` [Example 209, 6-(2,4-dimethoxyphenyl)-2-thioxo-1-(1H-1,2,4-triazol-5-ylmethyl)-2,3-dihydropyrimidin-4(1H)-one]: 4360 1/s per M. In the case of `COc1cc(OC)c(-c2cc(=O)[nH]c(=S)n2CCO)cc1F` [Example 184, 6-(5-fluoro-2,4-dimethoxyphenyl)-1-(2-hydroxyethyl)-2-thioxo-2,3-dihydropyrimidin-4(1H)-one], the “MPO kinact/Ki” value is on record as 5970 1/s per M. On the same count and under the same terms, under `COc1ncc(C)cc1-c1cc(=O)[nH]c(=S)n1CCCN` [Example 45, 1-(3-aminopropyl)-6-(2-methoxy-5-methylpyridin-3-yl)-2-thioxo-2,3-dihydropyrimidin-4(1H)-one trifluoroacetate] stands 4000 1/s per M; under `COc1cc(OC)c(-c2cc(=O)[nH]c(=S)n2CC(N)=O)cc1F` [Example 107, 2-[6-(5-fluoro-2,4-dimethoxyphenyl)-4-oxo-2-thioxo-3,4-dihydropyrimidin-1(2H)-yl]acetamide], 1280 1/s per M. In the case of `COCCn1c(-c2ccc(OC)cc2OC)cc(=O)[nH]c1=S` [Example 182, 6-(2,4-dimethoxyphenyl)-1-(2-methoxyethyl)-2-thioxo-2,3-dihydropyrimidin-4(1H)-one], the “MPO kinact/Ki” value is 8200 1/s per M. On the same count and under the same terms, under `COc1ccc(-c2cc(=O)[nH]c(=S)n2CC(O)CO)c(OC)c1` (stereo not shown) [Example 201, 1-(2,3-dihydroxypropyl)-6-(2,4-dimethoxyphenyl)-2-thioxo-2,3-dihydropyrimidin-4(1H)-one] stands 4350 1/s per M; under `CCOC(=O)Cn1c(-c2cc(OC)c(OC)cc2OC)cc(=O)[nH]c1=S` [Example 139, ethyl[4-oxo-2-thioxo-6-(2,4,5-trimethoxyphenyl)-3,4-dihydropyrimidin-1(2H)-yl]acetate], 2890 1/s per M. The same measure, in the same setting: next, `COc1ccccc1-c1cc(=O)[nH]c(=S)n1CCN` [Example 11, 1-(2-aminoethyl)-6-(2-methoxyphenyl)-2-thioxo-2,3-dihydropyrimidin-4(1H)-one hydrochloride]: 6880 1/s per M.

The same test, now with this note: Table 1A, 2 μM H2O2, pH 7.4.
In the case of `NCCNC(=O)Cn1c(-c2ccc(F)cc2OCCO)cc(=O)[nH]c1=S` [Example 415, N-(2-aminoethyl)-2-{6-[4-fluoro-2-(2-hydroxyethoxy)phenyl]-4-oxo-2-thioxo-3,4-dihydropyrimidin-1(2H)-yl}acetamide], the “MPO kinact/Ki” value is reported as 3910 1/s per M. On the same count and under the same terms, under `COc1ccc(-c2cc(=O)[nH]c(=S)n2CC(=O)N[C@@H]2CC[C@H]2N)c(OC)c1` [Example 441, N-[(1R,2R)-2-aminocyclobutyl]-2-[6-(2,4-dimethoxyphenyl)-4-oxo-2-thioxo-3,4-dihydropyrimidin-1(2H)-yl]acetamide] stands 3260 1/s per M; under `COc1ccc(-c2cc(=O)[nH]c(=S)n2CCN(C)C(=O)CN)c(OC)c1` [Example 440, N-{2-[6-(2,4-dimethoxyphenyl)-4-oxo-2-thioxo-3,4-dihydropyrimidin-1(2H)-yl]ethyl}-N-methylglycinamide], 3310 1/s per M.
